{"source": "paper PMC7503848", "about": "(International Journal of Molecular Sciences, 2020)", "key": {"P. falciparum 3D7": {"system": "P. falciparum 3D7", "assay": "Growth inhibition assay (GIA), P. falciparum 3D7", "assay_type": "cell-based, Plasmodium falciparum", "protocol": "P. falciparum 3D7 strain was thawed and cultured in vitro in human O+ erythrocytes at 4% hematocrit using the method described previously. Briefly, parasites were cultured in medium containing RPMI 1640 (Invitrogen, Carlsbad, CA, USA), supplemented with 2 g/L NaHCO3 (Sigma, St. Louis, MO, USA), 5 g/L albumax (Invitrogen), 50 mg/L hypoxanthine (Sigma), and 10 µg/mL gentamicin sulfate (Invitrogen, Carlsbad, CA, USA) at a pH of 7.2 under mixed gas condition (5% CO2, 5% O2, […]) at 37 °C.\nFor the growth inhibition assay, 36–38 h’ parasites were purified by percoll (GE Healthcare, Chicago, IL, USA) density gradient centrifugation. The assay was put on the late trophozoite stage in a 24-well plate in quadruplets in a total 500 µL volume/well. Initial parasitemia and hematocrit were adjusted to 1% and 2%, respectively. ZA1S peptide was added at a final concentration of 10 µM, 20 µM, and 40 µM. Control wells without any peptide or inhibitor were set to validate the normal growth rate of the parasite. After 24 h, a smear was made and fixed in methanol, followed by staining with 10% Giemsa (Sigma, St. Louis, MO, USA) for 10 min. The percent of infected erythrocytes containing different stages of the parasite was counted using a light microscope under 100X oil-immersion. The percent of growth inhibition was calculated using the following formula, and data were plotted graphically. % Growth inhibition = (Control-treated)/Control × 100"}, "myosin A tail [1]": {"system": "myosin A tail", "assay": "Far Western-Dot blot assay", "assay_type": "binding, Plasmodium falciparum", "details": "5 µg immobilized on nitrocellulose; 5 µg/mL biotinylated myosin A tail, 2 h room temperature; anti-biotin", "protocol": "For Far-Western Dot-blot assay, 5 µg each of ZA1S peptide, BSA, and non-specific peptide (N′- pSDNGpSGDD -C′) was immobilized on the strip. Subsequent to the drying of the membrane, it was blocked overnight at 4 °C, following which the second peptide myosin A was overlaid in 5 µg/mL of binding solution (1% BSA/PBST) on the strip for 2 h at room temperature. The strip was washed stringently, and the bound myosin A peptide was detected using an anti-biotin antibody (1:100 dilution) and HRP-conjugated secondary antibody."}, "myosin A tail [2]": {"system": "myosin A tail", "assay": "ELISA, myosin A tail on immobilized ZA1S", "assay_type": "binding, Plasmodium falciparum", "details": "ZA1S coated, myosin A tail overlaid, anti-biotin antibody, 450 nm", "text": "All wells were put up in triplicates."}}, "note": "“Also recorded” adds a separate entry of the source.", "data": [{"sequence": "DIDIDIMHE [ZA1S, nine amino acid long shortened peptide derived from ZA1 (…)]", "values": [{"measurement": "Invasion inhibition", "setting": "P. falciparum 3D7; 10, 20, 40 µM ZA1S on late trophozoite/schizont stage, 24 h, 1% parasitemia, 2% hematocrit, human O+ erythrocytes, Giemsa smear", "value": "concentration-dependent increase in invasion inhibition; also recorded: abrogated the invasion of P. falciparum in RBCs"}, {"measurement": "Completeness of parasite invasion inhibition", "setting": "P. falciparum 3D7; Pfal growth inhibition assay", "value": "we did not find a complete disruption of myosin A/MTIP complex so as to completely inhibit parasite invasion"}, {"measurement": "Parasite morphology", "setting": "P. falciparum 3D7; increasing concentrations of ZA1S (10, 20, 40 µM), 24 h, Giemsa smear", "value": "no change in the parasite morphology"}, {"measurement": "Detection of bound myosin A", "setting": "myosin A tail [1]", "value": "Myosin A was detected in the spot corresponding to ZA1S"}, {"measurement": "Binding of myosin A tail to ZA1S", "setting": "myosin A tail [2]", "value": "significant binding"}]}]}
